Laboratory results as given in ChEMBL document CHEMBL4507258 (2021).

Tests used:
[1] = biological target: Casein kinase I isoform gamma-2 (Homo sapiens) (UniProt P78368); settings: Compound concentration 1000.0 nM
[2] = test system: Phosphatidylinositol 4,5-bisphosphate 3-kinase catalytic subunit alpha isoform (Homo sapiens), P42336 [E545A]; settings: Compound concentration 1000.0 nM
[3] = biological target: Dual specificity mitogen-activated protein kinase kinase 2 (Homo sapiens) (UniProt P36507); settings: Compound concentration 1000.0 nM
Sequence of Dual specificity mitogen-activated protein kinase kinase 2 (Homo sapiens) (P36507 whole entry): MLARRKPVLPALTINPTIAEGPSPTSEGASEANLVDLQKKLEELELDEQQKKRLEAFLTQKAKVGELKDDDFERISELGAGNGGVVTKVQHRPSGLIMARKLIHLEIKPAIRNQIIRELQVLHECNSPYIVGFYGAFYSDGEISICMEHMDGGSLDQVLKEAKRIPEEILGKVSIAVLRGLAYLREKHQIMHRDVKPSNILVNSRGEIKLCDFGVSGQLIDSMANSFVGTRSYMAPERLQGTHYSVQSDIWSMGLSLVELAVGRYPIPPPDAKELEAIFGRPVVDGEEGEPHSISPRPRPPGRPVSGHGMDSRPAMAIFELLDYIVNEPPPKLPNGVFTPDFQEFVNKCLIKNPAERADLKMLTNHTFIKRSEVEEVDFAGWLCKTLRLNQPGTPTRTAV

[4] = biological target: Fibroblast growth factor receptor 4 (Homo sapiens) (UniProt P22455); settings: Compound concentration 1000.0 nM
[5] = biological target: TGF-beta receptor type-2 (Homo sapiens) (UniProt P37173); settings: Compound concentration 1000.0 nM
[6] = biological target: Mitogen-activated protein kinase kinase kinase 15 (Homo sapiens) (UniProt Q6ZN16); settings: Compound concentration 1000.0 nM
[7] = biological target: Serine/threonine-protein kinase 38-like (Homo sapiens) (UniProt Q9Y2H1); settings: Compound concentration 1000.0 nM
[8] = biological target: Histamine H2 receptor (Homo sapiens) (UniProt P25021); settings: Compound concentration 10.0 uM
[9] = test system: Receptor-type tyrosine-protein kinase FLT3 (Homo sapiens), P36888 [K663Q]; settings: Compound concentration 1000.0 nM
[10] = biological target: Dual specificity tyrosine-phosphorylation-regulated kinase 2 (Homo sapiens) (UniProt Q92630); settings: Compound concentration 1000.0 nM
[11] = biological target: Serine/threonine-protein kinase DCLK3 (Homo sapiens) (UniProt Q9C098); settings: Compound concentration 1000.0 nM
[12] = biological target: Casein kinase I isoform alpha-like (Homo sapiens) (UniProt Q8N752); settings: Compound concentration 1000.0 nM
Sequence of Casein kinase I isoform alpha-like (Homo sapiens) (Q8N752 whole entry, canonical isoform): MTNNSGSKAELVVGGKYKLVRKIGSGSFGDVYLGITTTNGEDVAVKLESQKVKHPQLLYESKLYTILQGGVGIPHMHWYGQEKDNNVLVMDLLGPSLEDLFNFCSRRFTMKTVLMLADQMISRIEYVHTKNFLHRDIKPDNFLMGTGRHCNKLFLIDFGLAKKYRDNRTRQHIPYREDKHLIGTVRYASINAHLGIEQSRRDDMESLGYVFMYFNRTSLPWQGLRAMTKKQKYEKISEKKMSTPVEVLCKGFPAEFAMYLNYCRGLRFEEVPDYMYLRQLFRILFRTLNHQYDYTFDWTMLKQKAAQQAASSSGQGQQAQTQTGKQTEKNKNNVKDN

[13] = biological target: Protein kinase C iota type (Homo sapiens) (UniProt P41743); settings: Compound concentration 1000.0 nM
Sequence of Protein kinase C iota type (Homo sapiens) (P41743 whole entry): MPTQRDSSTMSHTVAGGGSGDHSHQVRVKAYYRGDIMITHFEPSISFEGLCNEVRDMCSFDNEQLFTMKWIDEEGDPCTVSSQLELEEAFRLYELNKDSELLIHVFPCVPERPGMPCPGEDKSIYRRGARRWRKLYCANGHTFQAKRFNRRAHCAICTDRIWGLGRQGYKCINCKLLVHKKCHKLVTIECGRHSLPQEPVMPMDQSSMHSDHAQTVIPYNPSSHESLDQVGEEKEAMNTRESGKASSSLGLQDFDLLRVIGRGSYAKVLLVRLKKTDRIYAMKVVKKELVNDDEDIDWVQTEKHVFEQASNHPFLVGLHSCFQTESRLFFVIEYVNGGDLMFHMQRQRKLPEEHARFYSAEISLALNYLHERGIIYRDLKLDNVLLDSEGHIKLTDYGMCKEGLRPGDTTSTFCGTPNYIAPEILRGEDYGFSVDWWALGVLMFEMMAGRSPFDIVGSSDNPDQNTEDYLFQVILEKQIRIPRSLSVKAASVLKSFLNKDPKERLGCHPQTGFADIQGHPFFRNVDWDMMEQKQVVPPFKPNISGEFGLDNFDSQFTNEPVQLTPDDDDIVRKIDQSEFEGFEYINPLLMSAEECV

[14] = biological target: Ephrin type-A receptor 4 (Homo sapiens) (UniProt P54764); settings: Compound concentration 1000.0 nM
[15] = biological target: Calcium/calmodulin-dependent protein kinase type II subunit gamma (Homo sapiens) (UniProt Q13555); settings: Compound concentration 1000.0 nM
[16] = biological target: Serine/threonine-protein kinase Nek3 (Homo sapiens) (UniProt P51956); settings: Compound concentration 1000.0 nM
[17] = biological target: Calcium-dependent protein kinase 1 (Plasmodium falciparum) (UniProt P62344); settings: Compound concentration 1000.0 nM
[18] = biological target: Phosphatidylinositol 3-kinase catalytic subunit type 3 (Homo sapiens) (UniProt Q8NEB9); settings: Compound concentration 1000.0 nM
[19] = biological target: Serine/threonine-protein kinase SBK1 (Homo sapiens) (UniProt Q52WX2); settings: Compound concentration 1000.0 nM
[20] = biological target: SRSF protein kinase 3 (Homo sapiens) (UniProt Q9UPE1); settings: Compound concentration 1000.0 nM
[21] = biological target: Phosphatidylinositol 4-kinase beta (Homo sapiens) (UniProt Q9UBF8); settings: Compound concentration 1000.0 nM
[22] = biological target: Serine/threonine-protein kinase 33 (Homo sapiens) (UniProt Q9BYT3); settings: Compound concentration 1000.0 nM
[23] = biological target: Mitogen-activated protein kinase kinase kinase kinase 2 (Homo sapiens) (UniProt Q12851); settings: Compound concentration 1000.0 nM
[24] = test system: Receptor-type tyrosine-protein kinase FLT3 (Homo sapiens), P36888 [D835H]; settings: Compound concentration 1000.0 nM
[25] = biological target: Myosin-IIIa (Homo sapiens) (UniProt Q8NEV4); settings: Compound concentration 1000.0 nM
[26] = biological target: Serine/threonine-protein kinase TBK1 (Homo sapiens) (UniProt Q9UHD2); settings: Compound concentration 1000.0 nM
[27] = biological target: Serine/threonine-protein kinase ICK (Homo sapiens) (UniProt Q9UPZ9); settings: Compound concentration 1000.0 nM
[28] = biological target: Interleukin-1 receptor-associated kinase 1 (Homo sapiens) (UniProt P51617); settings: Compound concentration 1000.0 nM
[29] = biological target: Casein kinase II subunit alpha (Homo sapiens) (UniProt P68400); settings: Compound concentration 1000.0 nM
[30] = biological target: Dual specificity protein kinase CLK1 (Homo sapiens) (UniProt P49759); settings: Compound concentration 1000.0 nM
Sequence of Dual specificity protein kinase CLK1 (Homo sapiens) (P49759 whole entry, looked up): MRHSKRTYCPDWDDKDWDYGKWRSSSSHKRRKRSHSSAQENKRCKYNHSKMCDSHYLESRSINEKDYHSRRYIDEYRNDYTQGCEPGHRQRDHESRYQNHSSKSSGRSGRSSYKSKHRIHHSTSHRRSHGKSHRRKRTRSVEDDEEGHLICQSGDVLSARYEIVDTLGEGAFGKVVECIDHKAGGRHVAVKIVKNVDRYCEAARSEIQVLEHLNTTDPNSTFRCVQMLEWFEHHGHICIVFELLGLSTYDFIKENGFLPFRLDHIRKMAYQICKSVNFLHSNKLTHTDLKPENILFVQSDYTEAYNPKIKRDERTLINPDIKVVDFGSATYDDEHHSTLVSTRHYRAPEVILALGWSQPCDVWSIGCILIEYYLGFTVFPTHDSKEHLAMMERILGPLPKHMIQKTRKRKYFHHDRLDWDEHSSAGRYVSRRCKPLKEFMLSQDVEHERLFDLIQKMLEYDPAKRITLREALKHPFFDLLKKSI

[31] = test system: Leucine-rich repeat serine/threonine-protein kinase 2 (Homo sapiens), Q5S007 [G2019S]; settings: Compound concentration 1000.0 nM
[32] = biological target: Phosphatidylinositol 4-phosphate 5-kinase type-1 alpha (Homo sapiens) (UniProt Q99755); settings: Compound concentration 1000.0 nM
Sequence of Phosphatidylinositol 4-phosphate 5-kinase type-1 alpha (Homo sapiens) (Q99755 whole entry): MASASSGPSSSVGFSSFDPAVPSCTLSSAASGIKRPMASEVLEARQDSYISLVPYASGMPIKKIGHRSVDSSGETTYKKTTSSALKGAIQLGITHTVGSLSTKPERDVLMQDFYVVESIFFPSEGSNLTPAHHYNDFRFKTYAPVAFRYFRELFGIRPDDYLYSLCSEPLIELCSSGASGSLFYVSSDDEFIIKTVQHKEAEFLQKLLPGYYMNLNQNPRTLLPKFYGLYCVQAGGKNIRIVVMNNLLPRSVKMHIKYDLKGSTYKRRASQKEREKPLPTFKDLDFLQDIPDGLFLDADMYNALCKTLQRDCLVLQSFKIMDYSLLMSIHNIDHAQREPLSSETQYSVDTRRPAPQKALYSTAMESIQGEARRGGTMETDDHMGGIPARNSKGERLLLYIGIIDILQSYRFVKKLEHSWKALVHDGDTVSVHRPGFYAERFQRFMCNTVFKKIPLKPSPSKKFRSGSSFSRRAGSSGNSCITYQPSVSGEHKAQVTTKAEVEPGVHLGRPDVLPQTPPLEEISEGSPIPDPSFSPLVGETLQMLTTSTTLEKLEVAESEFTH

[33] = biological target: Testis-specific serine/threonine-protein kinase 3 (Homo sapiens) (UniProt Q96PN8); settings: Compound concentration 1000.0 nM
[34] = test system: Proto-oncogene tyrosine-protein kinase receptor Ret (Homo sapiens), P07949 [V804L]; settings: Compound concentration 1000.0 nM
[35] = biological target: Cyclin-dependent kinase 4 (Homo sapiens) (UniProt P11802); settings: Compound concentration 1000.0 nM
[36] = biological target: Interferon-induced, double-stranded RNA-activated protein kinase (Homo sapiens) (UniProt P19525); settings: Compound concentration 1000.0 nM
[37] = biological target: Mitogen-activated protein kinase kinase kinase 7 (Homo sapiens) (UniProt O43318); settings: Compound concentration 1000.0 nM
[38] = biological target: Ribosomal protein S6 kinase alpha-2 (Homo sapiens) (UniProt Q15349); settings: Compound concentration 1000.0 nM
Sequence of Ribosomal protein S6 kinase alpha-2 (Homo sapiens) (Q15349 whole entry): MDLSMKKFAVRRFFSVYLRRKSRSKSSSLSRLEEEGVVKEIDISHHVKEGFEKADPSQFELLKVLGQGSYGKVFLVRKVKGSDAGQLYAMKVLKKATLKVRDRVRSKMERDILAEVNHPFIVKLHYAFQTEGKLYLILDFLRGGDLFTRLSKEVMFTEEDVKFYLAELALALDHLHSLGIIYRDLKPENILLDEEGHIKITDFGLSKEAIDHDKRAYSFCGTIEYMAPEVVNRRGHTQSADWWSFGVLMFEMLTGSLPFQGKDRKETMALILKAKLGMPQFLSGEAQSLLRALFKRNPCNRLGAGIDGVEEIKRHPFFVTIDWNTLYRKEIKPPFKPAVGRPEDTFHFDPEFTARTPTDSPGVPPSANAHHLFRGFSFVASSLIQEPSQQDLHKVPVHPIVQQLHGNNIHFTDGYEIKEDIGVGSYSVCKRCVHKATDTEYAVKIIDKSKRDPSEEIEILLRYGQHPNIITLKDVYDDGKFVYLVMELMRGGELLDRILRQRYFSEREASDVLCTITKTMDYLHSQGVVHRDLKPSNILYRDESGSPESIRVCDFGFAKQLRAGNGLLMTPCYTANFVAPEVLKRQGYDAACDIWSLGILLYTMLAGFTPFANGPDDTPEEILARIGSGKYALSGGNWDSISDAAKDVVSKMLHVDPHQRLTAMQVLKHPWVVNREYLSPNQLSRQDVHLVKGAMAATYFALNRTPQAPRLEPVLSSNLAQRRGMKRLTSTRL

[39] = test system: Receptor-type tyrosine-protein kinase FLT3 (Homo sapiens), P36888 [UNDEFINED MUTATION]; settings: Compound concentration 1000.0 nM
[40] = biological target: Ribosomal protein S6 kinase alpha-2 (Homo sapiens) (UniProt Q15349); settings: Compound concentration 1000.0 nM; remark: listed apart in the source
[41] = biological target: Dual specificity mitogen-activated protein kinase kinase 1 (Homo sapiens) (UniProt Q02750); settings: Compound concentration 1000.0 nM
[42] = biological target: Serine/threonine-protein kinase Nek4 (Homo sapiens) (UniProt P51957); settings: Compound concentration 1000.0 nM
[43] = biological target: Cyclin-dependent kinase 11A (Homo sapiens) (UniProt Q9UQ88); settings: Compound concentration 1000.0 nM
Sequence of Cyclin-dependent kinase 11A (Homo sapiens) (Q9UQ88 whole entry): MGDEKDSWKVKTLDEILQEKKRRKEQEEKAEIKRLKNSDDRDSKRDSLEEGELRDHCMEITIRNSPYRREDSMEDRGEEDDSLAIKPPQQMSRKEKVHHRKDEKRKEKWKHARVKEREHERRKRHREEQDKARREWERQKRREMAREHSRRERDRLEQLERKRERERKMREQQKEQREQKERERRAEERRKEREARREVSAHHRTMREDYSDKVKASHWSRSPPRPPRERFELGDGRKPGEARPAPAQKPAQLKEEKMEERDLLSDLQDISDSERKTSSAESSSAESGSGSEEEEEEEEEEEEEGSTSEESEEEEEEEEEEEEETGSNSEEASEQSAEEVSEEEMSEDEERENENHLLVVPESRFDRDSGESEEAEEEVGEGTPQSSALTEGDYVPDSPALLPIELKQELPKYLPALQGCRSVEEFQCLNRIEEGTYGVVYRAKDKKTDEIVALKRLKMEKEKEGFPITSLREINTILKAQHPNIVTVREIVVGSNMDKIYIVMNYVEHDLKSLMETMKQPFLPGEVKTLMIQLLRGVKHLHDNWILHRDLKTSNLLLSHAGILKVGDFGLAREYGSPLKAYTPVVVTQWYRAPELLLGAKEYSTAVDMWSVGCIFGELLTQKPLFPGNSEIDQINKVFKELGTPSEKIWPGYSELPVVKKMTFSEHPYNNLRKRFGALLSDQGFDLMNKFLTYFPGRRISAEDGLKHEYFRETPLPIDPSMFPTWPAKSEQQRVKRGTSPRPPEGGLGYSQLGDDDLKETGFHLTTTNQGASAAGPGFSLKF

[44] = biological target: Serine/threonine-protein kinase pim-1 (Homo sapiens) (UniProt P11309); settings: Compound concentration 1000.0 nM

Sequence of Phosphatidylinositol 4,5-bisphosphate 3-kinase catalytic subunit alpha isoform (Homo sapiens), P42336 [E545A] (P42336 whole entry E545A, canonical isoform): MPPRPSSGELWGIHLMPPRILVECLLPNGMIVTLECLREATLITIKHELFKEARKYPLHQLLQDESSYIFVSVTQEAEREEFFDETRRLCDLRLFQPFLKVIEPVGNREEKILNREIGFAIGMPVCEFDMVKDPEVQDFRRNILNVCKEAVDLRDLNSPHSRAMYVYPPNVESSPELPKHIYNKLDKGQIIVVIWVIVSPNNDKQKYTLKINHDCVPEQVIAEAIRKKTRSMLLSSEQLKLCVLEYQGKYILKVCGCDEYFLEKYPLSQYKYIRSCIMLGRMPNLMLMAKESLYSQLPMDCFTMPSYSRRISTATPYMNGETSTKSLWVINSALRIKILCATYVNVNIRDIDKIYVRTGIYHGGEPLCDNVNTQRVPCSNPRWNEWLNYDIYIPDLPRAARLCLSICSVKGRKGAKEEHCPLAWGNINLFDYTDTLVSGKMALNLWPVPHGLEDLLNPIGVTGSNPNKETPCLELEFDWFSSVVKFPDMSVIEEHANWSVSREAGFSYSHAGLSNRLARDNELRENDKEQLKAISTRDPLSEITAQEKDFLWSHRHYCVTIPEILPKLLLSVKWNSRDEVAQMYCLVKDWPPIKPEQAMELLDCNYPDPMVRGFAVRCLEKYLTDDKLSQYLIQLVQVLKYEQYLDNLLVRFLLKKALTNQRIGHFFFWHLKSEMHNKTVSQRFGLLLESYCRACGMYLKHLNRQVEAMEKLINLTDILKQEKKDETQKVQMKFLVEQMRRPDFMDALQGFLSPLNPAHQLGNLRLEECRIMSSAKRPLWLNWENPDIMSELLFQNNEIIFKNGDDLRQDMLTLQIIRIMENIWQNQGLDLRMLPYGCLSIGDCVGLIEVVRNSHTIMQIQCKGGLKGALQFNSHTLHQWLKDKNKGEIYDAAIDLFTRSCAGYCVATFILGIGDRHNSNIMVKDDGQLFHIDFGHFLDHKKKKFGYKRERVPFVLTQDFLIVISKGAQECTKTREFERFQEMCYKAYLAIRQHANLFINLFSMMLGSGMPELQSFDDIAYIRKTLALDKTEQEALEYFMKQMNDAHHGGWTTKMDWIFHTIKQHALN

## CCCCN(CCCC)C(=O)CN1C[C@@H](c2cc(OC)c3c(c2)OCO3)[C@H](C(=O)O)[C@H]1CC(C)(C)CCC [A-545]
[1]
  residual activity: 96.3%
[2]
  residual activity: 77.9%
[3]
  residual activity: 98%
[4]
  residual activity: 95.8%
[5]
  residual activity: 98.6%
[6]
  residual activity: 99%
[7]
  residual activity: 92.4%
[8]
  inhibition: 8.46%
[9]
  residual activity: 80.1%
[10]
  residual activity: 82.9%
[11]
  residual activity: 100%
[12]
  residual activity: 91.1%
[13]
  residual activity: 100%
[14]
  residual activity: 95.7%
[15]
  residual activity: 94.3%
[16]
  residual activity: 72.9%
[17]
  residual activity: 86.9%
[18]
  residual activity: 98.7%
[19]
  residual activity: 90.6%
[20]
  residual activity: 100%
[21]
  residual activity: 97.6%
[22]
  residual activity: 100%
[23]
  residual activity: 100%
[24]
  residual activity: 100%
[25]
  residual activity: 100%
[26]
  residual activity: 100%
[27]
  residual activity: 83.5%
[28]
  residual activity: 76.6%
[29]
  residual activity: 88.6%
[30]
  residual activity: 100%
[31]
  residual activity: 100%
[32]
  residual activity: 100%
[33]
  residual activity: 100%
[34]
  residual activity: 100%
[35]
  residual activity: 92.7%
[36]
  residual activity: 100%
[37]
  residual activity: 84.7%
[38]
  residual activity: 84.7%
[39]
  residual activity: 100%
[40]
  residual activity: 90.2%
[41]
  residual activity: 100%
[42]
  residual activity: 93.9%
[43]
  residual activity: 98.3%
[44]
  residual activity: 91.7%

## CCCCN(CCCC)C(=O)CN1C[C@H](c2cc(OC)c3c(c2)OCO3)[C@@H](C(=O)O)[C@@H]1CC(C)(C)CCC [ABT-546]
[1]
  residual activity: 100%
[2]
  residual activity: 89.8%
[3]
  residual activity: 69.7%
[4]
  residual activity: 100%
[5]
  residual activity: 100%
[6]
  residual activity: 100%
[7]
  residual activity: 100%
[8]
  inhibition: 24.3%
[9]
  residual activity: 100%
[10]
  residual activity: 71.4%
[11]
  residual activity: 91.4%
[12]
  residual activity: 100%
[13]
  residual activity: 100%
[14]
  residual activity: 100%
[15]
  residual activity: 100%
[16]
  residual activity: 99.1%
[17]
  residual activity: 82%
[18]
  residual activity: 49.9%
[19]
  residual activity: 76.5%
[20]
  residual activity: 100%
[21]
  residual activity: 80.5%
[22]
  residual activity: 100%
[23]
  residual activity: 54.4%
[24]
  residual activity: 100%
[25]
  residual activity: 100%
[26]
  residual activity: 100%
[27]
  residual activity: 80.2%
[28]
  residual activity: 64.3%
[29]
  residual activity: 68.5%
[30]
  residual activity: 96.1%
[31]
  residual activity: 100%
[32]
  residual activity: 100%
[33]
  residual activity: 100%
[34]
  residual activity: 100%
[35]
  residual activity: 100%
[36]
  residual activity: 100%
[37]
  residual activity: 85.5%
[38]
  residual activity: 100%
[39]
  residual activity: 100%
[40]
  residual activity: 100%
[41]
  residual activity: 64.8%
[42]
  residual activity: 85%
[43]
  residual activity: 100%
[44]
  residual activity: 100%
